This is an account of results in patent US20220009920A1 (GB005, Inc., priority 2020, published 2022).

Assay in all cases: Large panel kinase profiling
Holding throughout (format): biochemical
What all share (conditions): 1 μM test article, 1 mM ATP

Test [1] has as its target FGFR1 (Homo sapiens, UniProt P11362). Put shortly: (§1)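 At 30° C., kinases turned over a CSox-Sensor peptide substrate with 1 mM ATP while 1 μM test article was present. Progress was followed by kinetic fluorescence readings.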
Test [2] has as its target T1, STK10/LOK (Homo sapiens, UniProt O94804).
T1 construct: AssayQuant Technologies, Inc. (contract assay)
Put shortly: as §1

The target of test [3] is T2, SK1 (Homo sapiens, UniProt P57059).
T2 construct: AssayQuant Technologies, Inc. (contract assay)
T2 sequence (P57059 whole entry): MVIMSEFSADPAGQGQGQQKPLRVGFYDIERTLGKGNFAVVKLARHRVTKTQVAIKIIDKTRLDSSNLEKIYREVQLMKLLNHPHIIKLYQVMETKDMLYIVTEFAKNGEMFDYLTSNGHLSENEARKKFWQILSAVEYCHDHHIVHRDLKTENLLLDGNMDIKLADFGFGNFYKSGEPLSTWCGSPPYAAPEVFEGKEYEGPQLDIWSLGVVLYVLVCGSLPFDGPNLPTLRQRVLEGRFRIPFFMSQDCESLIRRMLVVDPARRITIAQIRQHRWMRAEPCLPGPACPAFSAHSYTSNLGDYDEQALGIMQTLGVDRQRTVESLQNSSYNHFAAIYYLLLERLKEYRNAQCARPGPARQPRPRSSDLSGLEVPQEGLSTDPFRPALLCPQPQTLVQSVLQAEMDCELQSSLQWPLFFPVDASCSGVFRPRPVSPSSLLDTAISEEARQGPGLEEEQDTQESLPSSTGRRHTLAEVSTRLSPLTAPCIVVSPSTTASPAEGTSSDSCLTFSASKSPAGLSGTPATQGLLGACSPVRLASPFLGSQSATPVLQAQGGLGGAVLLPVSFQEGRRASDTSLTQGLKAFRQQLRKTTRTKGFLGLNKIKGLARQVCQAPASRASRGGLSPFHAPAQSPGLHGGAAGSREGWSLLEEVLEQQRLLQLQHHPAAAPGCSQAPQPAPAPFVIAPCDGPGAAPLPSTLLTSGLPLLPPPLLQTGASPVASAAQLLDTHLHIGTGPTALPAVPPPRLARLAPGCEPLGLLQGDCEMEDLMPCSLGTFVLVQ
The gist of the method:
as §1

The target of test [4] is T3, PRKD3 (Homo sapiens, UniProt O94806).
T3 sequence (O94806 1-890): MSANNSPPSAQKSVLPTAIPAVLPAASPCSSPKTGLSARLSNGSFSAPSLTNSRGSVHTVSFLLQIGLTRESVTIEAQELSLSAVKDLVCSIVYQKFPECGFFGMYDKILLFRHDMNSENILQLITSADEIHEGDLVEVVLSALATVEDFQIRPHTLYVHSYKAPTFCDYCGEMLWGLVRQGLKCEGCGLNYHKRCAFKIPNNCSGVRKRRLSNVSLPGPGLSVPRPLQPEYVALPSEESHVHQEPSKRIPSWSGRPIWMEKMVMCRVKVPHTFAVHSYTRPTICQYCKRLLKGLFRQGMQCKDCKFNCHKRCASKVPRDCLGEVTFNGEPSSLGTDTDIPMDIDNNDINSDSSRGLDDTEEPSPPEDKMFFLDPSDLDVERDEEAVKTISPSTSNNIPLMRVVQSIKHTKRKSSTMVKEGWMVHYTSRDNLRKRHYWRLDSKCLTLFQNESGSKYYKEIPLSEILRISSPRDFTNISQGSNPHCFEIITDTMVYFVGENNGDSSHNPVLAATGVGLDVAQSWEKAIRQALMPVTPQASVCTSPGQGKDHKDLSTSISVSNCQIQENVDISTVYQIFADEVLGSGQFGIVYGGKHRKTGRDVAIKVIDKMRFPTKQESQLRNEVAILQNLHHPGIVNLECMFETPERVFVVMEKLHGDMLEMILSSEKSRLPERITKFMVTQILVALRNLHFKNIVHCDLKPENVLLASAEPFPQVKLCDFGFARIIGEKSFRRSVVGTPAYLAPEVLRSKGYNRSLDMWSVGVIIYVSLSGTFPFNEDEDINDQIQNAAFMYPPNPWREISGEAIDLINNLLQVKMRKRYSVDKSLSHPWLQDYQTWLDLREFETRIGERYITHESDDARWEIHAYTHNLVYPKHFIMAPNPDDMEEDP
Put shortly:
as §1

The target in test [5] is T4, CAMK2G (Homo sapiens, UniProt Q13555).
T4 construct: AssayQuant Technologies, Inc. (ran the panel)
T4 sequence (Q13555 whole entry, species assumed): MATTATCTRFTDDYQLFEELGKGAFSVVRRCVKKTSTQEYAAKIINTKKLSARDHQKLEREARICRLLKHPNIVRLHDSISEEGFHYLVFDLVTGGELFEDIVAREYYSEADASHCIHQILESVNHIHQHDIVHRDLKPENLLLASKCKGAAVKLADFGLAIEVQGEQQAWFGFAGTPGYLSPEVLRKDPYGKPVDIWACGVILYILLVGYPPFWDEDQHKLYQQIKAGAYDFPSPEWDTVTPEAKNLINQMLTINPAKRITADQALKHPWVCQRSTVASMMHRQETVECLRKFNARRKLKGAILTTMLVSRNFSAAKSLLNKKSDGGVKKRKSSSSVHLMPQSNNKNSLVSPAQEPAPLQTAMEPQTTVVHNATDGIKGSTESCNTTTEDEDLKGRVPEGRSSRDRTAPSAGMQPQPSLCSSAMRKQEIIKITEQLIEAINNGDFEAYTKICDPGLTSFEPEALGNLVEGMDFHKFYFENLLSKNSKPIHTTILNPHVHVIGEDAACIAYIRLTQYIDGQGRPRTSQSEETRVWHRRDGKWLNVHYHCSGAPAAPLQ
The gist of the method: as §1

Test [6] concerns the target T5, FLT4 (Homo sapiens, UniProt P35916).
T5 construct: AssayQuant Technologies, Inc. (service provider)
Put shortly:
as §1

In test [7] the target is T6, GRK4 (Homo sapiens, UniProt P32298).
T6 construct: AssayQuant Technologies, Inc. (service provider)
T6 sequence (P32298 whole entry, species assumed): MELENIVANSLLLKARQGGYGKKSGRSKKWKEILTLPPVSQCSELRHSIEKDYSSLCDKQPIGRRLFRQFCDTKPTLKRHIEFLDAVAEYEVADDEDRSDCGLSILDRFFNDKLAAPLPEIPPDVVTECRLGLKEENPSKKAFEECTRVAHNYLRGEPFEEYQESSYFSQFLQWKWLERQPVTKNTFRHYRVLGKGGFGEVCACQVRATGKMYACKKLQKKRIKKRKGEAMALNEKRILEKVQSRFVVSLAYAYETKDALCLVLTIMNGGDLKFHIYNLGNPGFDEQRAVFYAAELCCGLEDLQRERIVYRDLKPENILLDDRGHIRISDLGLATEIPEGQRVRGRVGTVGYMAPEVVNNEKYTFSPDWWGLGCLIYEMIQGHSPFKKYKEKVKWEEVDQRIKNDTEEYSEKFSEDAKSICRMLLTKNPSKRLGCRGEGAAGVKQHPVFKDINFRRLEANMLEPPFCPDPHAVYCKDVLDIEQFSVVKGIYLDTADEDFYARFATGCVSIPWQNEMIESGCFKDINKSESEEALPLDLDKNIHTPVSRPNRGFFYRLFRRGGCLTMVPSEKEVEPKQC
The gist of the method:
as §1

The target of test [8] is T7, SGK3 (Homo sapiens, UniProt Q96BR1).
T7 construct: AssayQuant Technologies, Inc. (contract assay)
T7 sequence (Q96BR1 1-496): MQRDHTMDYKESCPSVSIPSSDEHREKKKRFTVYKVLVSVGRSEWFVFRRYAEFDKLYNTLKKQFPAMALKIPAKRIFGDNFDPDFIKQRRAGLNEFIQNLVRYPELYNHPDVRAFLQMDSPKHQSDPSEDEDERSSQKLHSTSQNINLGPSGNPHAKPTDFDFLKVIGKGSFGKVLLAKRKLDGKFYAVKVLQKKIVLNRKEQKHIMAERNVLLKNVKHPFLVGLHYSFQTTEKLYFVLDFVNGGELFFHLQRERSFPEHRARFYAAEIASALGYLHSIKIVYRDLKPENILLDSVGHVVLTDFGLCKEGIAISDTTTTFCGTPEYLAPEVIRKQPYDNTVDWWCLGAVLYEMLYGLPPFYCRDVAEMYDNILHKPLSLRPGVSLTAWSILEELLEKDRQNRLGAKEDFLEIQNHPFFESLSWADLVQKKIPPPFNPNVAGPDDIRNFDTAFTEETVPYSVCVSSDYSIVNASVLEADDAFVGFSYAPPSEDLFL
Put shortly: as §1

In test [9] the target is T8, AURKA/AURA (Homo sapiens, UniProt O14965).
T8 sequence (O14965 1-403): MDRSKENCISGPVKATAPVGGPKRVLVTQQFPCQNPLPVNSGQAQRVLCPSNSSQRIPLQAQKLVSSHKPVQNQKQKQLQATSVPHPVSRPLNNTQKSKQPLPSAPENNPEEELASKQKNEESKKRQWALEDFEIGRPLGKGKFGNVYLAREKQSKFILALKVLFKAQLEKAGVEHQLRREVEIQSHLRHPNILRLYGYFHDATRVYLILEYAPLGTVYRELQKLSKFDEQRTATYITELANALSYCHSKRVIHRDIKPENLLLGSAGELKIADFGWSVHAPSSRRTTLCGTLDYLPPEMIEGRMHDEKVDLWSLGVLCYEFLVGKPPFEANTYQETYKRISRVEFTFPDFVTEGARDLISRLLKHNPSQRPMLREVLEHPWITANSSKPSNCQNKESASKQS
The gist of the method:
as §1

Test [10] concerns the target T9, CDC42BPA/MRCKA (Homo sapiens, UniProt Q5VT25).
T9 construct: AssayQuant Technologies, Inc. (ran the panel)
The gist of the method: as §1

For test [11], the target named is T10, MAPK10/JNK3 (Homo sapiens, UniProt P53779).
T10 construct: AssayQuant Technologies, Inc. (service provider)
T10 sequence (P53779 whole entry): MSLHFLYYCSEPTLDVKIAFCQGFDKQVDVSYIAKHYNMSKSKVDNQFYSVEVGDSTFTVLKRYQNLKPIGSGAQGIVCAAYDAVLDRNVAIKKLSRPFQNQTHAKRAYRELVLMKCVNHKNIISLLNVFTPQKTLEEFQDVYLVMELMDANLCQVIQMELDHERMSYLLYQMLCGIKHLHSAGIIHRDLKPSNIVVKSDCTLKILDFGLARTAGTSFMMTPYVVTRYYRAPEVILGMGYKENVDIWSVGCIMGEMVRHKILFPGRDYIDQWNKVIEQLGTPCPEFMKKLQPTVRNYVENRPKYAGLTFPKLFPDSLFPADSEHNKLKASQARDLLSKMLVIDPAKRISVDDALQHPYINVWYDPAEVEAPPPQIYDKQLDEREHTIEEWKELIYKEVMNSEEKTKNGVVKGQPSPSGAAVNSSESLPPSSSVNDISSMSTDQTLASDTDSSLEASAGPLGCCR
The gist of the method: as §1

T5 sequence (P35916 25-1363, species assumed): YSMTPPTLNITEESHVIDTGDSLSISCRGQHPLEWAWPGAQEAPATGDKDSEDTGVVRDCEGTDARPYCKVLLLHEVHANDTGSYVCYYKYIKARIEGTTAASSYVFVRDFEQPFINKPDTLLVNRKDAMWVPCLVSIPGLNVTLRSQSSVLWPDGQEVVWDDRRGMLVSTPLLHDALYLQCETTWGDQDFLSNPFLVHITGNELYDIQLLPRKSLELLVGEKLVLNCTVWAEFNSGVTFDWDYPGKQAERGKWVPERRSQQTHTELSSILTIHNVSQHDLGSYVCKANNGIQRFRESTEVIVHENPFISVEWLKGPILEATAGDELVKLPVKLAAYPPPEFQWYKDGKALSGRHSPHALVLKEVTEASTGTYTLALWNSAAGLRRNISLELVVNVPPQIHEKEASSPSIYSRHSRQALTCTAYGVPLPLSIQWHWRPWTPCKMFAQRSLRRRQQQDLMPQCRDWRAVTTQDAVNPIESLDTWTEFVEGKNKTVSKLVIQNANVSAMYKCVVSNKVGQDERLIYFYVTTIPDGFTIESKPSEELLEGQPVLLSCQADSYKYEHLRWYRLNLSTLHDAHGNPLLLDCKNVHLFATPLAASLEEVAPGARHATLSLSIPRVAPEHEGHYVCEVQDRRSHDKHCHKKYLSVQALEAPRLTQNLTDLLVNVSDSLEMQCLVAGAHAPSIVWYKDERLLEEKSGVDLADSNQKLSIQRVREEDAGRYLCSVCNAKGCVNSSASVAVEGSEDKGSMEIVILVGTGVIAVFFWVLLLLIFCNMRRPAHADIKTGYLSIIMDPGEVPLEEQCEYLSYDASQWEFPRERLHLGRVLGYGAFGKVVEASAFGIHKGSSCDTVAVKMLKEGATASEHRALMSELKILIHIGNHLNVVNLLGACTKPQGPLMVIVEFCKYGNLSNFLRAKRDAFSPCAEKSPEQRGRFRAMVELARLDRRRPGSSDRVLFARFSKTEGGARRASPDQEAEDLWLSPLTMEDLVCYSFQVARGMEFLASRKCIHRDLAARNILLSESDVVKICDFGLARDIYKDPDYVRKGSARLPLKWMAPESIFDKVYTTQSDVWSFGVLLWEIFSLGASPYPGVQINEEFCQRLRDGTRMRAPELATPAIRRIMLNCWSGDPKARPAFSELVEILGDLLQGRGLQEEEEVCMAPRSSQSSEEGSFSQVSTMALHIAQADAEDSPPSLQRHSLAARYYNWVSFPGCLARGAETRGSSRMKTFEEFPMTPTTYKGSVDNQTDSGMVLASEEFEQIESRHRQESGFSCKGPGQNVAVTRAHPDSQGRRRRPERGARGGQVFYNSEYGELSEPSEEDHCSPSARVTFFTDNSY
Sequence of FGFR1 (P11362 22-822, species assumed): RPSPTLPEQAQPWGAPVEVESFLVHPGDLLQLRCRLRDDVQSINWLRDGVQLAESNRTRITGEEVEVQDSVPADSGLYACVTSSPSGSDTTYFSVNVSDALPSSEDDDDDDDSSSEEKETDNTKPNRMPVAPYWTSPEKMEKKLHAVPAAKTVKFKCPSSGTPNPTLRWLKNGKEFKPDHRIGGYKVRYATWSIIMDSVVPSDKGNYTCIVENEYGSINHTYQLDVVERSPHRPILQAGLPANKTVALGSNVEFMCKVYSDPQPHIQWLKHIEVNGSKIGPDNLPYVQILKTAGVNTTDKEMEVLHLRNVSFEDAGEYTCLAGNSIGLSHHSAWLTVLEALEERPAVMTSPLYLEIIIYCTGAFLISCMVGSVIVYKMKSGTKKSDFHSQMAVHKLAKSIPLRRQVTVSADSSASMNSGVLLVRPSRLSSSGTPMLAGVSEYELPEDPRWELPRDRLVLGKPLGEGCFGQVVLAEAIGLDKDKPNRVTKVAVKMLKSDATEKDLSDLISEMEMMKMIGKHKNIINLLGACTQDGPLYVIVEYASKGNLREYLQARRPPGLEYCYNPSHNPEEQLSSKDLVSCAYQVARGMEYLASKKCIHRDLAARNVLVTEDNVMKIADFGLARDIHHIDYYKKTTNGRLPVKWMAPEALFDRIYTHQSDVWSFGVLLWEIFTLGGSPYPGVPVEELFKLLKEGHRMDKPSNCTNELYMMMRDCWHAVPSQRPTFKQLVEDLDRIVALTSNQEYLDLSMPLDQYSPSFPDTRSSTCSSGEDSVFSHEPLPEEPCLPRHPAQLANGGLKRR

As for `C=CC(=O)N1CCCC(c2c(F)cc(C(N)=O)c3[nH]c4c(c23)CCCCC4)C1` (single isomer, unassigned) [Compound 5-6], the inhibition (usually the change of the read-out against control, counted positive when it falls) at 1 µM in [1] is 18.4%; in [2], 3.1%; in test [3], -13.6%; in test [4] it was 4.4%; in [5], 15.7%; in test [6], 19.7%. Also, the inhibition at 1 µM was 3.4% in [7]; -28.1% in test [8]; -42% in test [9]; -30.9% in test [10]; -13% in test [11].
`C=CC(=O)N1CCC[C@@H](c2c(F)cc(C(N)=O)c3[nH]c4c(c23)CC2(CC4)CC2)C1` [Compound 6-2, (S)-5-(1-acryloylpiperidin-3-yl)-6-fluoro-1,2,4,9-tetrahydrospiro[carbazole-3,1′-cyclopropane]-8-carboxamide]: the inhibition at 1 µM in [1] is 6.6%; in [2], 12.2%; in test [3], 4.6%; in [4] it was -62.4%; in [5] it was -7.1%; in test [6], 20.4%. Moreover, the inhibition at 1 µM is -53% in test [7]; -19.9% in test [8]; -24.7% in [9]; -16.2% in [10]; 32.1% in test [11].
As to `C=CC(=O)N1CCC[C@@H](c2c(F)cc(C(N)=O)c3[nH]c4c(c23)CCC4)C1` [Compound 10-2, (S)-8-(1-acryloylpiperidin-3-yl)-7-fluoro-1,2,3,4-tetrahydrocyclo-penta[b]indole-5-carboxamide], the inhibition at 1 µM in test [1] is 8.7%; in [2] it was -8.7%; in test [3] it was 13.5%; in [4], -65.4%; in [5] it was -37.5%; in [6], 1.8%. The inhibition at 1 µM in [7] was -36.1%; in test [8], -32.5%; in test [9], -12.1%; in test [10], 1.8%; in [11], -4%.
